Measured values as given in US20230062100A1, “SUBSTITUTED AMINOQUINOLONES AS DGKALPHA INHIBITORS FOR IMMUNE ACTIVATION” (Bayer Aktiengesellschaft, priority 2019, published 2023).

These compounds were tested against DGKα (Homo sapiens, UniProt P23743) (assay: Human DGKα kinase activity inhibition assay (ADP-Glo)). Details: in vitro human DGKα kinase activity inhibition assay.
Type: biochemical
Method in brief: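 C-terminally FLAG-tagged full-length human DGKα from baculovirus/insect cells (typically ~0.1 nM) phosphorylated 1,2-dioleoyl-sn-glycerol in octyl-β-D-glucopyranoside micelles in MOPS pH 7.4. ADP formed was quantified by ADP-Glo luminescence after 1 h ATP depletion at 22 °C.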

Chain of DGKα (P23743 with tags, fused parts or gaps): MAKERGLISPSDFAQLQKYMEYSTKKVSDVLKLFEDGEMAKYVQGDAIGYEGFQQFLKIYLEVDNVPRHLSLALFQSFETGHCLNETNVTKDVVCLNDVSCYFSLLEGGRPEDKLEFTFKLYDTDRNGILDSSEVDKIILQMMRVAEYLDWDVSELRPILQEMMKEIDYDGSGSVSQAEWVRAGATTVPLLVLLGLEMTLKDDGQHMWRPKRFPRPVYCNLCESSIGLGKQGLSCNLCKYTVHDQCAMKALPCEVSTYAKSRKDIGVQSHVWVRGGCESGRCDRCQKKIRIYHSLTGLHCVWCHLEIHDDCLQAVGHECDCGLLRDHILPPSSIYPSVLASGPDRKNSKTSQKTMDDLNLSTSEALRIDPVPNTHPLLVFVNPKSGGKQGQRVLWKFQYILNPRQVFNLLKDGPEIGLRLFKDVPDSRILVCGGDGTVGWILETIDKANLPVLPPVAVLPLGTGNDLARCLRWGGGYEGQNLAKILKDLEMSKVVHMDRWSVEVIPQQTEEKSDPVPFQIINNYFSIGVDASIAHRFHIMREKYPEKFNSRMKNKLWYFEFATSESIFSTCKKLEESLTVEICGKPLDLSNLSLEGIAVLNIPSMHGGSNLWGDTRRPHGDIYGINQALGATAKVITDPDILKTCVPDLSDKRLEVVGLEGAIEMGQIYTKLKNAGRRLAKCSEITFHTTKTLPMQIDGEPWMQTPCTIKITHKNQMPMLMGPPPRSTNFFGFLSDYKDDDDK

Compound | IC50 [nM]
Cn1c(=O)c(C#N)c(N2CCC(Sc3ccccc3)CC2)c2ccc(N3CCCC3=O)cc21 [Example 83, 1-methyl-2-oxo-7-(2-oxopyrrolidin-1-yl)-4-[4-(phenylsulfanyl)piperidin-1-yl]-1,2-dihydroquinoline-3-carbonitrile] | 14
Cn1c(=O)c(C#N)c(N2CCC(Oc3ccc(F)cc3)CC2)c2ccc(N3CCCC3=O)cc21 [Example 84, 4-[4-(4-fluorophenoxy)piperidin-1-yl]-1-methyl-2-oxo-7-(2-oxopyrrolidin-1-yl)-1,2-dihydroquinoline-3-carbonitrile] | 25
Cn1c(=O)c(C#N)c(N2CCC(Oc3ccc(C(F)(F)F)cc3)CC2)c2ccc(N3CCCC3=O)cc21 [Example 86, 1-methyl-2-oxo-7-(2-oxopyrrolidin-1-yl)-4-{4-[4-(trifluoromethyl)phenoxy]piperidin-1-yl}-1,2-dihydroquinoline-3-carbonitrile] | 32
Cc1ccc2c(N3CCC(Oc4ccccc4)CC3)c(C#N)c(=O)n(C)c2c1 [Example 88, 1,7-dimethyl-2-oxo-4-(4-phenoxypiperidin-1-yl)-1,2-dihydroquinoline-3-carbonitrile] | 5.8
COc1ccc2c(N3CCC(Oc4ccccc4)CC3)c(C#N)c(=O)n(C)c2c1 [Example 89, 7-methoxy-1-methyl-2-oxo-4-(4-phenoxypiperidin-1-yl)-1,2-dihydroquinoline-3-carbonitrile] | 4.7
Cn1c(=O)c(C#N)c(N2CCC(Cc3ccccc3)CC2)c2ccccc21 [Example 91, 4-(4-benzylpiperidin-1-yl)-1-methyl-2-oxo-1,2-dihydroquinoline-3-carbonitrile] | 4.5
Cn1c(=O)c(C#N)c(N2CCC(Cc3ccc(F)cc3)CC2)c2ccccc21 [Example 92, 4-{4-[(4-fluorophenyl)methyl]piperidin-1-yl}-1-methyl-2-oxo-1,2-dihydroquinoline-3-carbonitrile] | 6.2
Cn1c(=O)c(C#N)c(N2CCC(Cc3nc4ccccc4s3)CC2)c2ccccc21 [Example 93, 4-{4-[(1,3-benzothiazol-2-yl)methyl]piperidin-1-yl}-1-methyl-2-oxo-1,2-dihydroquinoline-3-carbonitrile] | 39
COc1ccccc1CC1CCN(c2c(C#N)c(=O)n(C)c3ccccc23)CC1 [Example 94, 4-{4-[(2-methoxyphenyl)methyl]piperidin-1-yl}-1-methyl-2-oxo-1,2-dihydroquinoline-3-carbonitrile] | 28
Cn1c(=O)c(C#N)c(N2CCC(Cc3ccc(C#N)cc3)CC2)c2ccccc21 [Example 95, 4-{4-[(4-cyanophenyl)methyl]piperidin-1-yl}-1-methyl-2-oxo-1,2-dihydroquinoline-3-carbonitrile] | 15
Cn1c(=O)c(C(N)=O)c(N2CCC(Oc3ccc(Cl)cc3)CC2)c2ccc(N3CCCC3=O)cc21 [Example 97, 4-[4-(4-chlorophenoxy)piperidin-1-yl]-1-methyl-2-oxo-7-(2-oxopyrrolidin-1-yl)-1,2-dihydroquinoline-3-carboxamide] | 122
Cn1c(=O)c(C(N)=O)c(N2CCC(Oc3ccc(OC(F)(F)F)cc3)CC2)c2ccc(Cl)cc21 [Example 98, 7-chloro-1-methyl-2-oxo-4-{4-[4-(trifluoromethoxy)phenoxy]piperidin-1-yl}-1,2-dihydroquinoline-3-carboxamide] | 1.9
Cn1c(=O)c(C#N)c(N2CCC(OCc3ccccc3)CC2)c2ccccc21 [Example 106, 4-[4-(benzyloxy)piperidin-1-yl]-1-methyl-2-oxo-1,2-dihydroquinoline-3-carbonitrile] | 8.3
COc1ccc(COC2CCN(c3c(C#N)c(=O)n(C)c4ccccc34)CC2)cc1 [Example 109, 4-{4-[(4-methoxyphenyl)methoxy]piperidin-1-yl}-1-methyl-2-oxo-1,2-dihydroquinoline-3-carbonitrile] | 16
Cn1c(=O)c(C#N)c(N2CCC(OCc3ccc(F)cc3)CC2)c2ccccc21 [Example 110, 4-{4-[(4-fluorophenyl)methoxy]piperidin-1-yl}-1-methyl-2-oxo-1,2-dihydroquinoline-3-carbonitrile] | 5.3
COc1cccc(COC2CCN(c3c(C#N)c(=O)n(C)c4ccccc34)CC2)c1 [Example 115, 4-{4-[(3-methoxyphenyl)methoxy]piperidin-1-yl}-1-methyl-2-oxo-1,2-dihydroquinoline-3-carbonitrile] | 29
Cn1c(=O)c(C#N)c(N2CCC(COc3ccc(Cl)cc3)CC2)c2ccccc21 [Example 116, 4-{4-[(4-chlorophenoxy)methyl]piperidin-1-yl}-1-methyl-2-oxo-1,2-dihydroquinoline-3-carbonitrile] | 6.4
COc1ccccc1COC1CCN(c2c(C#N)c(=O)n(C)c3ccccc23)CC1 [Example 117, 4-{4-[(2-methoxyphenyl)methoxy]piperidin-1-yl}-1-methyl-2-oxo-1,2-dihydroquinoline-3-carbonitrile] | 6
Cn1c(=O)c(C#N)c(N2CCC(COc3cccc(Cl)c3)CC2)c2ccccc21 [Example 119, 4-{4-[(3-chlorophenoxy)methyl]piperidin-1-yl}-1-methyl-2-oxo-1,2-dihydroquinoline-3-carbonitrile] | 34
Cn1c(=O)c(C#N)c(N2CCC(COc3ccccc3Cl)CC2)c2ccccc21 [Example 120, 4-{4-[(2-chlorophenoxy)methyl]piperidin-1-yl}-1-methyl-2-oxo-1,2-dihydroquinoline-3-carbonitrile] | 51
Cn1c(=O)c(C(N)=O)c(N2CCC(OCc3ccccc3)CC2)c2ccccc21 [Example 121, 4-[4-(benzyloxy)piperidin-1-yl]-1-methyl-2-oxo-1,2-dihydroquinoline-3-carboxamide] | 16
Cc1cccc(COC2CCN(c3c(C(N)=O)c(=O)n(C)c4ccccc34)CC2)c1 [Example 123, 1-methyl-4-{4-[(3-methylphenyl)methoxy]piperidin-1-yl}-2-oxo-1,2-dihydroquinoline-3-carboxamide] | 14

Now from value to compound:

IC50 [nM] | Compound
12 | Cn1c(=O)c(C#N)c(N2CCC(Oc3ccc(OC(F)(F)F)cc3)CC2)c2ccc(N3CCCC3=O)cc21 [Example 82, 1-methyl-2-oxo-7-(2-oxopyrrolidin-1-yl)-4-{4-[4-(trifluoromethoxy)phenoxy]piperidin-1-yl}-1,2-dihydroquinoline-3-carbonitrile]
28 | Cn1c(=O)c(C#N)c(N2CCC(Oc3ccc(Cl)cc3)CC2)c2ccc(N3CCCC3=O)cc21 [Example 85, 4-[4-(4-chlorophenoxy)piperidin-1-yl]-1-methyl-2-oxo-7-(2-oxopyrrolidin-1-yl)-1,2-dihydroquinoline-3-carbonitrile]
40 | Cn1c(=O)c(C#N)c(N2CCC(Oc3ccc(C(F)(F)F)cc3)CC2)c2ccc(C3CC3)cc21 [Example 87, 7-cyclopropyl-1-methyl-2-oxo-4-{4-[4-(trifluoromethyl)phenoxy]piperidin-1-yl}-1,2-dihydroquinoline-3-carbonitrile]
1.7 | COc1ccc2c(N3CCC(Sc4ccccc4)CC3)c(C#N)c(=O)n(C)c2c1 [Example 90, 7-methoxy-1-methyl-2-oxo-4-[4-(phenylsulfanyl)piperidin-1-yl]-1,2-dihydroquinoline-3-carbonitrile]
12 | Cn1c(=O)c(C(N)=O)c(N2CCC(Oc3ccc(OC(F)(F)F)cc3)CC2)c2ccc(N3CCCC3=O)cc21 [Example 96, 1-methyl-2-oxo-7-(2-oxopyrrolidin-1-yl)-4-{4-[4-(trifluoromethoxy)phenoxy]piperidin-1-yl}-1,2-dihydroquinoline-3-carboxamide]
1.2 | Cn1c(=O)c(C(N)=O)c(N2CCC(Oc3ccc(OC(F)(F)F)cc3)CC2)c2ccc(F)cc21 [Example 99, 7-fluoro-1-methyl-2-oxo-4-{4-[4-(trifluoromethoxy)phenoxy]piperidin-1-yl}-1,2-dihydroquinoline-3-carboxamide]
7.2 | Cc1ccc(COC2CCN(c3c(C#N)c(=O)n(C)c4ccccc34)CC2)cc1 [Example 107, 1-methyl-4-{4-[(4-methylphenyl)methoxy]piperidin-1-yl}-2-oxo-1,2-dihydroquinoline-3-carbonitrile]
10 | Cc1cccc(COC2CCN(c3c(C#N)c(=O)n(C)c4ccccc34)CC2)c1 [Example 108, 1-methyl-4-{4-[(3-methylphenyl)methoxy]piperidin-1-yl}-2-oxo-1,2-dihydroquinoline-3-carbonitrile]
4.8 | Cn1c(=O)c(C#N)c(N2CCC(OCc3ccccc3F)CC2)c2ccccc21 [Example 111, 4-{4-[(2-fluorophenyl)methoxy]piperidin-1-yl}-1-methyl-2-oxo-1,2-dihydroquinoline-3-carbonitrile]
12 | Cn1c(=O)c(C#N)c(N2CCC(OCc3cccc(F)c3)CC2)c2ccccc21 [Example 113, 4-{4-[(3-fluorophenyl)methoxy]piperidin-1-yl}-1-methyl-2-oxo-1,2-dihydroquinoline-3-carbonitrile]
16 | Cc1ccccc1COC1CCN(c2c(C#N)c(=O)n(C)c3ccccc23)CC1 [Example 114, 1-methyl-4-{4-[(2-methylphenyl)methoxy]piperidin-1-yl}-2-oxo-1,2-dihydroquinoline-3-carbonitrile]
123 | Cn1c(=O)c(C#N)c(N2CCC(COc3ccccc3)CC2)c2ccccc21 [Example 118, 1-methyl-2-oxo-4-[4-(phenoxymethyl)piperidin-1-yl]-1,2-dihydroquinoline-3-carbonitrile]
7.1 | Cc1ccc(COC2CCN(c3c(C(N)=O)c(=O)n(C)c4ccccc34)CC2)cc1 [Example 122, 1-methyl-4-{4-[(4-methylphenyl)methoxy]piperidin-1-yl}-2-oxo-1,2-dihydroquinoline-3-carboxamide]
30 | Cc1ccccc1COC1CCN(c2c(C(N)=O)c(=O)n(C)c3ccccc23)CC1 [Example 124, 1-methyl-4-{4-[(2-methylphenyl)methoxy]piperidin-1-yl}-2-oxo-1,2-dihydroquinoline-3-carboxamide]
